Source: US8912386B2, “Transgenic pig model of cystic fibrosis” (University of Iowa Research Foundation, priority 2007, dated 2014)
Read-outs that look alike come from different tables or passages of the source. Blank lines part the entries; values can stand above or below the compound they belong to.

Experiments:
nasal epithelia = experiment: In vivo nasal transepithelial voltage (Vt) in newborn piglets; design: species or system pig; details: sequential perfusion, amiloride 100 μM, ATP 100 μM, GlyH-101 100 μM
Protocol: The transepithelial voltage (Vt) across the nasal epithelium was measured using previously described methods (Zabner et al., J. Clin. Invest. 97:1504, 1996; Standaert et al., Pediatr. Pulmonol. 37:385, 2004) under propofol anesthesia with the animal spontaneously breathing. The reference electrode was a small Ringer's solution-filled catheter inserted into the leg muscle (25 g needle). The exploring electrode was a 6 french foley catheter filled with Ringer's solution (148 mM NaCl, 2.4 mM KH2PO4, 0.4 mM K2PO4, 2.25 mM CaCl2, 1.2 mM MgCl2) inserted 4 cm into the nasal cavity, and the nasal mucosa was perfused at a rate of 5 ml/min using Ringer's solution to obtain baseline Vt. Subsequent perfusion solutions included: Ringer's solution containing 100 μM amiloride; Cl^−-free Ringer's solution containing gluconate substituted for CF plus amiloride; Cl^−-free Ringer's solution containing amiloride plus 10 μM isoproterenol; Cl^−-free Ringer's solution containing amiloride, isoproterenol, plus 100 μM ATP; Cl^−-free Ringer's solution containing amiloride, isoproterenol, ATP, plus 100 μM GlyH-101. Voltage was measured with a voltmeter connected to a strip chart recorder. Each solution was perfused for 3-5 minutes. Following completion of the measurements, the epithelium was disrupted by brushing and Vt measured again to determine the zero value of Vt.

CFTR^+/+ epithelia = experiment: Short-circuit current (Isc) response to increasing cAMP agonist concentrations, Ussing chambers, wild-type epithelia; assay type: cell-based, pig
Source text: (§1) These studies were done under conditions of maximal CFTR stimulation. Therefore, we also examined the response to increasing concentrations of forskolin and IBMX (at a fixed ratio of forskolin:IBMX of 1:10) (FIG. 33F,G). The EC50 for CFTR^+/+ epithelia was […]. In contrast, the EC50 for forskolin in CFTR^ΔF508/ΔF508 epithelia was 0.60±0.19
(§2) Because forskolin and IBMX might generate different cellular cAMP concentrations in CFTR^ΔF508/ΔF508 and CFTR^+/+ epithelia, we repeated the experiments with 8-CPT-cAMP, a membrane-permeable cAMP analog (FIG. 33H,I).
(§3) Epithelial tissues were excised from the nasal turbinate and septum, and from trachea through 2nd generation bronchi immediately after animals were euthanized. Tissues and cultured epithelia were studied in modified Ussing chambers. Epithelia were bathed on both surfaces with solution containing (mM): 135 NaCl, 2.4 K2HPO4, 0.6 KH2PO4, 1.2 CaCl2, 1.2 MgCl2, 10 dextrose, 5 HEPES, pH 7.4, at 37° C. and gassed with compressed air. Na-gluconate was substituted for NaCl in […] solutions. Transepithelial voltage (Vt) was maintained at 0 mV to measure short-circuit current (Isc). Transepithelial electrical conductance (Gt) was measured by intermittently clamping Vt to +5 and/or −5 mV.
(§4) A standard protocol was the following. 1) Measurements under basal conditions. 2) 100 μM apical amiloride to inhibit ENaC Na^+ channels. […]

[1] = system: CFTR^ΔF508/ΔF508 epithelia; experiment: Short-circuit current (Isc) response to increasing cAMP agonist concentrations, Ussing chambers, ΔF508 epithelia; assay type: cell-based, pig
Source text: as §1, §2, §3, §4

[2] = system: excised trachea epithelia; experiment: Electrophysiology of freshly excised tracheal epithelia in Ussing chambers; assay type: cell-based, pig; details: 100 μM apical
Source text: Values of transepithelial electrical conductance (Gt) were large, probably because of “edge damage” associated with clamping epithelia in Ussing chambers (Helman et al., Am. J. Physiol. Cell Physiol. 225(4):972-977, 1973) (compare with cultured epithelia in FIG. 31, 32).
as §3
A standard protocol was the following. 1) Measurements under basal conditions. 2) 100 μM apical amiloride to inhibit ENaC Na^+ channels. 3) 100 μM apical DIDS (4,4-diisothiocyano stilbene-2,2-disulfonic acid) to inhibit most anion channels other than CFTR. 4) 10 μM forskolin and 100 μM IBMX ([…]) to increase cellular levels of cAMP leading to phosphorylation and activation of CFTR. […]

Structure (SMILES): O=C(CNc1ccc2ccccc2c1)N/N=C/c1cc(Br)c(O)c(Br)c1O [GlyH-101]
Effect on nasal transepithelial voltage (Vt) (nasal epithelia): depolarized Vt in controls, but not CFTR−/− piglets

EC50 (CFTR^+/+ epithelia; Sus scrofa, CFTR^+/+ epithelia, increasing forskolin and IBMX at fixed ratio forskolin:IBMX 1:10, read-out: EC50 for forskolin (change in Isc)): 0.07 ± 0.01 µM
EC50 ([1]; Sus scrofa, increasing forskolin and IBMX at fixed ratio forskolin:IBMX 1:10, read-out: EC50 for forskolin (change in Isc)): 0.6 ± 0.19 µM
Structure (SMILES): C=C[C@@]1(C)CC(=O)[C@]2(O)[C@@]3(C)[C@@H](O)CCC(C)(C)[C@@H]3[C@H](O)[C@H](OC(C)=O)[C@@]2(C)O1 [forskolin]

EC50 (CFTR^+/+ epithelia; wild-type epithelia, read-out: EC50 (change in Isc with increasing 8-CPT-cAMP)): 8 ± 1.3 µM
EC50 ([1]; read-out: EC50 (change in Isc with increasing 8-CPT-cAMP)): 65.2 ± 17.3 µM
Structure (SMILES): Nc1ncnc2c1nc(Sc1ccc(Cl)cc1)n2[C@@H]1O[C@@H]2COP(=O)(O)O[C@H]2[C@H]1O [8-CPT-cAMP]

Structure (SMILES): Nc1ncnc2c1ncn2[C@@H]1O[C@H](COP(=O)(O)OP(=O)(O)OP(=O)(O)O)[C@@H](O)[C@H]1O [ATP]
Effect on nasal transepithelial voltage (Vt) (nasal epithelia): further hyperpolarized Vt

Structure (SMILES): N=C(N)NC(=O)c1nc(Cl)c(N)nc1N [Amiloride, amiloride]
Effect on nasal transepithelial voltage (Vt) (nasal epithelia): reduced Vt in all genotypes
Effect on transepithelial conductance Gt (ΔGtamiloride) ([2]; CFTR^ΔF508/ΔF508 vs CFTR^+/+): reduced Gt (ΔGtamiloride) to a similar extent
Effect on Vt and Isc (ΔVtamiloride, ΔIscamiloride) ([2]; CFTR^ΔF508/ΔF508 vs wild-type): reduced Vt (ΔVtamiloride) and Isc (ΔIscamiloride) in CFTR^ΔF508/ΔF508 more than in wild-type epithelia
